In paper PMC8204404 (Structure(London, England:1993), 2021):
Non-standard residues stand in square brackets, D forms with d. Residues, ends and D or L forms follow the SMILES beside them. No end group written: not given here. *: point of attachment. 5FAM = O=C1OC2(c3ccc(O)cc3Oc3cc(O)ccc32)c2ccc(C(=O)*)cc21; pT = C[C@@H](OP(=O)(O)O)[C@H](N)C(=O)O; pS = N[C@@H](COP(=O)(O)O)C(=O)O

B1: Flu-CLASPIN_pS945 peptide (peptide)
peptide: GGMEELLNLCSGKFTSQ
modifications: not fully specified

Key:
[1] = target: T1, CHK1-KD (CHK1 construct consisting of only the kinase domain, CHK1(1-290)) (Homo sapiens, UniProt O14757); experiment: Fluorescence polarization binding of CLASPIN peptides to CHK1-KD; conditions: FP, phosphorylated peptide
T1 sequence (O14757 1-290): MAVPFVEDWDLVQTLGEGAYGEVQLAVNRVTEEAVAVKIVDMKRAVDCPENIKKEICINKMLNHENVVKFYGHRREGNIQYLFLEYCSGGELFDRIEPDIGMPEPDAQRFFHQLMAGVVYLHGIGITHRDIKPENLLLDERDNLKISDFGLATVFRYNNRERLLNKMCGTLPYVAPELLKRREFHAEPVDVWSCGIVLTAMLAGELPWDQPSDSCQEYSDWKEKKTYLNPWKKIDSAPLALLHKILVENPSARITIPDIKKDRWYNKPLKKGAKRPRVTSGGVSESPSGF

[2] = target: T2, CHK1-KD (CHK1 construct consisting of only the kinase domain) (Homo sapiens, UniProt O14757); type: binding
T2 sequence (O14757 1-290): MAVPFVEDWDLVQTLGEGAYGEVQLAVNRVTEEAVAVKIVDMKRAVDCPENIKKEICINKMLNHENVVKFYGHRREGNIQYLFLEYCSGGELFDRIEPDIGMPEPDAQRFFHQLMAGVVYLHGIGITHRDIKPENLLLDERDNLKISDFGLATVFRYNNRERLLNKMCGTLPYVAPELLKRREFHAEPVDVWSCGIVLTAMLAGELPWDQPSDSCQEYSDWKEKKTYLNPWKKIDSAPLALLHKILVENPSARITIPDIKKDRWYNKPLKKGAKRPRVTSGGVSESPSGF

[3] = target: T3, CHK1 kinase domain (CHK1-KD), STREP-(3C)-CHK1(1–290)-HIS (human, UniProt O14757 1-290); experiment: fluorescence polarisation
T3 sequence: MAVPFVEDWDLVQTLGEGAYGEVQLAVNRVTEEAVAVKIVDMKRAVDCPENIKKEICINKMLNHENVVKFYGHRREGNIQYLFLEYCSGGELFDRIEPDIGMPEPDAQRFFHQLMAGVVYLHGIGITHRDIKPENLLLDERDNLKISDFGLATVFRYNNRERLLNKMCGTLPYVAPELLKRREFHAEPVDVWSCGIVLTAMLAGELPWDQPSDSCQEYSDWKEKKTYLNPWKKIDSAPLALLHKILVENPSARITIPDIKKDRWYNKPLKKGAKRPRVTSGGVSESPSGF

[4] = target: B1; experiment: fluorescence polarisation

Row | Molecule | affinity for CHK1-KD (in words) [1] | binding result [3] | further results
1 | CSCC[C@H](NC(=O)CNC(=O)CNC(=O)c1ccc2c(c1)C(=O)OC21c2ccc(O)cc2Oc2cc(O)ccc21)C(=O)N[C@@H](CC(=O)O)C(=O)N[C@@H](CCC(=O)O)C(=O)N[C@@H](CC(C)C)C(=O)N[C@@H](CC(C)C)C(=O)N[C@@H](CC(=O)O)C(=O)N[C@@H](CC(C)C)C(=O)N[C@@H](CS)C(=O)N[C@H](C(=O)NCC(=O)N[C@@H](CCCCN)C(=O)N[C@@H](Cc1ccccc1)C(=O)N[C@H](C(=O)N[C@@H](CO)C(=O)N[C@@H](CCC(N)=O)C(=O)O)[C@@H](C)O)[C@@H](C)OP(=O)(O)O [pT916] (5FAM-GGMDELLDLC[pT]GKFTSQ-OH) | high nanomolar range | – | –
2 | CSCC[C@H](NC(=O)CNC(=O)CNC(=O)c1ccc2c(c1)C(=O)OC21c2ccc(O)cc2Oc2cc(O)ccc21)C(=O)N[C@@H](CCC(=O)O)C(=O)N[C@@H](CCC(=O)O)C(=O)N[C@@H](C)C(=O)N[C@@H](CC(C)C)C(=O)N[C@@H](C)C(=O)N[C@@H](CC(C)C)C(=O)N[C@@H](CS)C(=O)N[C@@H](COP(=O)(O)O)C(=O)NCC(=O)N[C@@H](CO)C(=O)N[C@@H](Cc1ccccc1)C(=O)N1CCC[C@H]1C(=O)N[C@H](C(=O)N[C@@H](CC(=O)O)C(=O)O)[C@@H](C)O [pS982] (5FAM-GGMEEALALC[pS]GSFPTD-OH) | high nanomolar range | – | –
3 | MEELLNLC[pS]GKFTSQ [CLASPIN pS945 peptide] | – | – | effect on affinity of CHK1-KD for CDC25C substrate peptide [2]: no significant difference
4 | CSCC[C@H](NC(=O)CNC(=O)CNC(=O)c1ccc2c(c1)C(=O)OC21c2ccc(O)cc2Oc2cc(O)ccc21)C(=O)N[C@@H](CCC(=O)O)C(=O)N[C@@H](CCC(=O)O)C(=O)N[C@@H](CC(C)C)C(=O)N[C@@H](CC(C)C)C(=O)N[C@@H](CC(N)=O)C(=O)N[C@@H](CC(C)C)C(=O)N[C@@H](CS)C(=O)N[C@@H](COP(=O)(O)O)C(=O)NCC(=O)N[C@@H](CCCCN)C(=O)N[C@@H](Cc1ccccc1)C(=O)N[C@H](C(=O)N[C@@H](CO)C(=O)N[C@@H](CCC(N)=O)C(=O)O)[C@@H](C)O [pS945] (5FAM-GGMEELLNLC[pS]GKFTSQ-OH) | high nanomolar range | – | –
5 | B1 | – | binds | –
6 | GGMEEALALCSGSFPTD (not fully specified; fluorescein on the N-terminus; phosphoserine at 982 (pS982)) [Flu-CLASPIN_pS982 peptide] | – | binds | –
7 | GGMDELLDLCTGKFTSQ (not fully specified; fluorescein on the N-terminus; phosphothreonine at 916 (pT916)) [Flu-CLASPIN_pT916 peptide] | – | binds | –
8 | full-length CHK1, STREP-(3C)-CHK1-HIS, treated with λ-phosphatase (enzyme) MAVPFVEDWDLVQTLGEGAYGEVQLAVNRVTEEAVAVKIVDMKRAVDCPENIKKEICINKMLNHENVVKFYGHRREGNIQYLFLEYCSGGELFDRIEPDIGMPEPDAQRFFHQLMAGVVYLHGIGITHRDIKPENLLLDERDNLKISDFGLATVFRYNNRERLLNKMCGTLPYVAPELLKRREFHAEPVDVWSCGIVLTAMLAGELPWDQPSDSCQEYSDWKEKKTYLNPWKKIDSAPLALLHKILVENPSARITIPDIKKDRWYNKPLKKGAKRPRVTSGGVSESPSGFSKHIQSNLDFSPVNSASSEENVKYSSSQPEPRTGLSLWDTSPSYIDKLVQGISFSQPTCPDHMLLNSQLLGTPGSSQNPWQRLVKRMTRFFTKLDADKSYQCLKETCEKLGYQWKKSCMNQVTISTTDRRNNKLIFKVNLLEMDDKILVDFRLSKGDGLEFKRHFLKIKGKLIDIVSSQKIWLPAT | – | – | fold lower affinity than CHK1-KD [4]: 2 fold
